{"source": "patent US20240317721A1", "about": "“PYRAZOLYL DERIVATIVES AS INHIBITORS OF THE KRAS MUTANT PROTEIN” (NOVARTIS AG, priority 2021, published 2024)", "data": [{"molecular_target": "KRasG12C (M1-K169, biotinylated on the N-terminus) (Homo sapiens (Human), UniProt P01116, G12C)", "experiment": "Covalent competition assay: scintillation proximity assay (SPA) quantifying covalent modification of KRASG12C", "assay_type": "binding", "details": "competition with radiolabeled covalent probe (Compound B/Compound A), 2 hours incubation, 10 nM KRasG12C", "summary_of_the_method": "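Test compounds compete with a radiolabeled covalent probe for modification of N-terminally biotinylated KRasG12C(M1-K169):GDP, final 10 nM protein, 25 nM radio-ligand, 475 nM unlabelled ligand, 2 h with agitation in 20 mM Tris-HCl pH 7.5, 150 mM NaCl, 0.1 mM MgCl2, 0.01% Tween-20.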", "units": {"IC50": "nM"}, "values": [{"smiles": "C=CC(=O)N1CC2(CCC(n3nc(N4CCN(C(C)=O)CC4)c(-c4c(Cl)ccc5[nH]ncc45)c3C)C2)C1", "note": "(single isomer, unassigned) [Example 53c, 1-(6-(3-(4-acetylpiperazin-1-yl)-4-(5-chloro-1H-indazol-4-yl)-5-methyl-1H-pyrazol-1-yl)-2-azaspiro[3.4]octan-2-yl)prop-2-en-1-one]", "IC50": "> 50000"}, {"smiles": "C=CC(=O)N1CC2(CCC(n3nc(N4CCN(C(C)=O)CC4)c(-c4c(Cl)ccc5[nH]ncc45)c3C)C2)C1", "note": "(single isomer, unassigned) [Example 53d, 1-(6-(3-(4-acetylpiperazin-1-yl)-4-(5-chloro-1H-indazol-4-yl)-5-methyl-1H-pyrazol-1-yl)-2-azaspiro[3.4]octan-2-yl)prop-2-en-1-one]", "IC50": 9030}, {"smiles": "C=CC(=O)N1CC2(CC(n3nc(N4CCN(C5COC5)CC45CCC5)c(-c4c(Cl)c(C)cc5[nH]ncc45)c3C)C2)C1", "note": "(single isomer, unassigned) [Example 54a, 1-(6-(4-(5-Chloro-6-methyl-1H-indazol-4-yl)-5-methyl-3-(8-(oxetan-3-yl)-5,8-diazaspiro[3.5]nonan-5-yl)-1H-pyrazol-1-yl)-2-azaspiro[3.3]heptan-2-yl)prop-2-en-1-one]", "IC50": 17800}, {"smiles": "C=CC(=O)N1CC2(CC(n3nc(N4CCN(C5COC5)CC45CCC5)c(-c4c(Cl)c(C)cc5[nH]ncc45)c3C)C2)C1", "note": "(single isomer, unassigned) [Example 54b, 1-(6-(4-(5-Chloro-6-methyl-1H-indazol-4-yl)-5-methyl-3-(8-(oxetan-3-yl)-5,8-diazaspiro[3.5]nonan-5-yl)-1H-pyrazol-1-yl)-2-azaspiro[3.3]heptan-2-yl)prop-2-en-1-one]", "IC50": 15}, {"smiles": "C=CC(=O)N1CC2(CC(n3nc(N4CCN(C)CC45CCC5)c(-c4c(Cl)c(C)cc5[nH]ncc45)c3C)C2)C1", "note": "(single isomer, unassigned) [Example 55a, 1-(6-(4-(5-chloro-6-methyl-1H-indazol-4-yl)-5-methyl-3-(8-methyl-5,8-diazaspiro[3.5]nonan-5-yl)-1H-pyrazol-1-yl)-2-azaspiro[3.3]heptan-2-yl)prop-2-en-1-one]", "IC50": 24700}, {"smiles": "C=CC(=O)N1CC2(CC(n3nc(N4CCN(C)CC45CCC5)c(-c4c(Cl)c(C)cc5[nH]ncc45)c3C)C2)C1", "note": "(single isomer, unassigned) [Example 55b, 1-(6-(4-(5-chloro-6-methyl-1H-indazol-4-yl)-5-methyl-3-(8-methyl-5,8-diazaspiro[3.5]nonan-5-yl)-1H-pyrazol-1-yl)-2-azaspiro[3.3]heptan-2-yl)prop-2-en-1-one]", "IC50": 34}, {"smiles": "C=CC(=O)N1CC2(CC(n3nc(N4[C@@H](C)CN(C(C)=O)C[C@@H]4C)c(-c4c(Cl)c(C)cc5[nH]ncc45)c3C)C2)C1", "note": "(single isomer, unassigned) [Example 56a]", "IC50": "> 50000"}, {"smiles": "C=CC(=O)N1CC2(CC(n3nc(N4[C@@H](C)CN(C(C)=O)C[C@@H]4C)c(-c4c(Cl)c(C)cc5[nH]ncc45)c3C)C2)C1", "note": "(single isomer, unassigned) [Example 56b]", "IC50": 334}, {"smiles": "C=CC(=O)N1CC2(CC(n3nc(N4C5CCC4CN(C(C)=O)C5)c(-c4c(Cl)c(C)cc5[nH]ncc45)c3C)C2)C1", "note": "(single isomer, unassigned) [Example 57a, 1-(6-(3-(3-acetyl-3,8-diazabicyclo[3.2.1]octan-8-yl)-4-(5-chloro-6-methyl-1H-indazol-4-yl)-5-methyl-1H-pyrazol-1-yl)-2-azaspiro[3.3]heptan-2-yl)prop-2-en-1-one]", "IC50": 34700}, {"smiles": "C=CC(=O)N1CC2(CC(n3nc(N4C5CCC4CN(C(C)=O)C5)c(-c4c(Cl)c(C)cc5[nH]ncc45)c3C)C2)C1", "note": "(single isomer, unassigned) [Example 57b, 1-(6-(3-(3-acetyl-3,8-diazabicyclo[3.2.1]octan-8-yl)-4-(5-chloro-6-methyl-1H-indazol-4-yl)-5-methyl-1H-pyrazol-1-yl)-2-azaspiro[3.3]heptan-2-yl)prop-2-en-1-one]", "IC50": 216}, {"smiles": "C=CC(=O)N1CC2(CC(n3nc(N4CCC(N(CC)C5COC5)CC4(C)C)c(-c4c(Cl)c(Cl)cc5[nH]ncc45)c3C)C2)C1", "note": "(single isomer, unassigned) [Example 61a, 1-(6-(4-(5,6-dichloro-1H-indazol-4-yl)-3-(4-(ethyl(oxetan-3-yl)amino)-2,2-dimethylpiperidin-1-yl)-5-methyl-1H-pyrazol-1-yl)-2-azaspiro[3.3]heptan-2-yl)prop-2-en-1-one]", "IC50": 881}, {"smiles": "C=CC(=O)N1CC2(CC(n3nc(N4CCC(N(CC)C5COC5)CC4(C)C)c(-c4c(Cl)c(Cl)cc5[nH]ncc45)c3C)C2)C1", "note": "(single isomer, unassigned) [Example 61b, 1-(6-(4-(5,6-dichloro-1H-indazol-4-yl)-3-(4-(ethyl(oxetan-3-yl)amino)-2,2-dimethylpiperidin-1-yl)-5-methyl-1H-pyrazol-1-yl)-2-azaspiro[3.3]heptan-2-yl)prop-2-en-1-one]", "IC50": 6}, {"smiles": "C=CC(=O)N1CC2(CC(n3nc(N4CCC(N5CCOCC5)CC45CCC5)c(-c4c(Cl)c(C)cc5[nH]ncc45)c3C)C2)C1", "note": "(single isomer, unassigned) [Example 63a, 1-(6-(4-(5-chloro-6-methyl-1H-indazol-4-yl)-5-methyl-3-(8-morpholino-5-azaspiro[3.5]nonan-5-yl)-1H-pyrazol-1-yl)-2-azaspiro[3.3]heptan-2-yl)prop-2-en-1-one]", "IC50": 10}, {"smiles": "C=CC(=O)N1CC2(CC(n3nc(N4CCC(N5CCOCC5)CC45CCC5)c(-c4c(Cl)c(C)cc5[nH]ncc45)c3C)C2)C1", "note": "(single isomer, unassigned) [Example 63b, 1-(6-(4-(5-chloro-6-methyl-1H-indazol-4-yl)-5-methyl-3-(8-morpholino-5-azaspiro[3.5]nonan-5-yl)-1H-pyrazol-1-yl)-2-azaspiro[3.3]heptan-2-yl)prop-2-en-1-one]", "IC50": 3100}, {"smiles": "C=CC(=O)N1CC2(CC(n3nc(N4CC(=O)N(C)CC45CCC5)c(-c4c(Cl)c(C)cc5[nH]ncc45)c3C)C2)C1", "note": "(single isomer, unassigned) [Example 65a, 5-(1-(2-acryloyl-2-azaspiro[3.3]heptan-6-yl)-4-(5-chloro-6-methyl-1H-indazol-4-yl)-5-methyl-1H-pyrazol-3-yl)-8-methyl-5,8-diazaspiro[3.5]nonan-7-one]", "IC50": "> 5000"}, {"smiles": "C=CC(=O)N1CC2(CC(n3nc(N4CC(=O)N(C)CC45CCC5)c(-c4c(Cl)c(C)cc5[nH]ncc45)c3C)C2)C1", "note": "(single isomer, unassigned) [Example 65b, 5-(1-(2-acryloyl-2-azaspiro[3.3]heptan-6-yl)-4-(5-chloro-6-methyl-1H-indazol-4-yl)-5-methyl-1H-pyrazol-3-yl)-8-methyl-5,8-diazaspiro[3.5]nonan-7-one]", "IC50": 212}, {"smiles": "C=CC(=O)N1CC2(CC(n3nc(N4CCCCC45CN(C(C)=O)C5)c(-c4c(Cl)c(C)cc5[nH]ncc45)c3C)C2)C1", "note": "(single isomer, unassigned) [Example 66a, 1-(6-(3-(2-acetyl-2,5-diazaspiro[3.5]nonan-5-yl)-4-(5-chloro-6-methyl-1H-indazol-4-yl)-5-methyl-1H-pyrazol-1-yl)-2-azaspiro[3.3]heptan-2-yl)prop-2-en-1-one]", "IC50": "> 50000"}, {"smiles": "C=CC(=O)N1CC2(CC(n3nc(N4CCCCC45CN(C(C)=O)C5)c(-c4c(Cl)c(C)cc5[nH]ncc45)c3C)C2)C1", "note": "(single isomer, unassigned) [Example 66b, 1-(6-(3-(2-acetyl-2,5-diazaspiro[3.5]nonan-5-yl)-4-(5-chloro-6-methyl-1H-indazol-4-yl)-5-methyl-1H-pyrazol-1-yl)-2-azaspiro[3.3]heptan-2-yl)prop-2-en-1-one]", "IC50": 2200}, {"smiles": "C=CC(=O)N1CC2(CC(n3nc(N4CCN(C5COC5)CC4(C)C)c(-c4c(Cl)c(C)cc5[nH]ncc45)c3C)C2)C1", "note": "(single isomer, unassigned) [Example 67a, 1-(6-(4-(5-chloro-6-methyl-1H-indazol-4-yl)-3-(2,2-dimethyl-4-(oxetan-3-yl)piperazin-1-yl)-5-methyl-1H-pyrazol-1-yl)-2-azaspiro[3.3]heptan-2-yl)prop-2-en-1-one]", "IC50": "> 50000"}, {"smiles": "C=CC(=O)N1CC2(CC(n3nc(N4CCN(C5COC5)CC4(C)C)c(-c4c(Cl)c(C)cc5[nH]ncc45)c3C)C2)C1", "note": "(single isomer, unassigned) [Example 67b, 1-(6-(4-(5-chloro-6-methyl-1H-indazol-4-yl)-3-(2,2-dimethyl-4-(oxetan-3-yl)piperazin-1-yl)-5-methyl-1H-pyrazol-1-yl)-2-azaspiro[3.3]heptan-2-yl)prop-2-en-1-one]", "IC50": 38}, {"smiles": "C=CC(=O)N1CC2(CC(n3nc(N4CCN(CC(F)(F)F)CC4(C)C)c(-c4c(Cl)c(C)cc5[nH]ncc45)c3C)C2)C1", "note": "(single isomer, unassigned) [Example 68a, 1-(6-(4-(5-chloro-6-methyl-1H-indazol-4-yl)-3-(2,2-dimethyl-4-(2,2,2-trifluoroethyl)piperazin-1-yl)-5-methyl-1H-pyrazol-1-yl)-2-azaspiro[3.3]heptan-2-yl)prop-2-en-1-one]", "IC50": "> 15000"}, {"smiles": "C=CC(=O)N1CC2(CC(n3nc(N4CCN(CC(F)(F)F)CC4(C)C)c(-c4c(Cl)c(C)cc5[nH]ncc45)c3C)C2)C1", "note": "(single isomer, unassigned) [Example 68b, 1-(6-(4-(5-chloro-6-methyl-1H-indazol-4-yl)-3-(2,2-dimethyl-4-(2,2,2-trifluoroethyl)piperazin-1-yl)-5-methyl-1H-pyrazol-1-yl)-2-azaspiro[3.3]heptan-2-yl)prop-2-en-1-one]", "IC50": 239}, {"smiles": "C=CC(=O)N1CC2(CC(n3nc(N4CC[C@@H](N(C)C(C)=O)CC4(C)C)c(-c4c(Cl)c(C)cc5[nH]ncc45)c3C)C2)C1", "note": "(single isomer, unassigned) [Example 69a]", "IC50": 4400}, {"smiles": "C=CC(=O)N1CC2(CC(n3nc(N4CC[C@@H](N(C)C(C)=O)CC4(C)C)c(-c4c(Cl)c(C)cc5[nH]ncc45)c3C)C2)C1", "note": "(single isomer, unassigned) [Example 69b]", "IC50": 15}]}]}
